In PubChem BioAssay AID1963447 (Molecular Pharmacology Branch, DTP, NCI, 2024):
pIC50: −log10 of the molar value.

System: 885512-296-R-J2-PDC complex spheroid growth, % test/control
Experiment: Anticancer human tumor 885512-296-R-J2-PDC patient-derived breast carcinoma cell line growth inhibition [Asc]
Settings: for pIC50: curve of first compound; for viability, T/C: stronger effect = lower value; active = viability on the fitted dose curve at most 10% of control; inactive = the rest
Procedure: Multicellular complex tumor spheroid response to apoptosis pathway targeting inhibitors Alrizomadlin, Pelcitoclax, and Dasminapant in combination with a variety of drugs and investigational agents in selected tumor cell lines
The MDM2 inhibitor alrizomadlin, the Bcl-2/Bcl-xL inhibitor pelcitoclax, and the IAPs inhibitor dasminapant were evaluated both individually and in combination with standard of care and investigational anticancer small molecules within a complex spheroid model of solid tumors. . Complex spheroids include a stromal component modeled by human endothelial cells (HUVEC) and fibroblasts modeled by human mesenchymal stem cells (MSCs). The concentration ranges selected for each drug and investigational agent were based upon clinically achievable concentrations if the clinical Cmax of the agent was known.
Compounds. The drugs and investigational agents: alrizomadlin (APG-115; NSC831270), pelcitoclax (APG-1252; NSC835773), dasminapant (APG-1387;NSC834197), TAK-243 (NSC785004), copanlisib (NSC809693), olaparib (NSC753686), talazoparib (NSC767125), cobimetinib (NSC 768068), eltanexor (KPT-8602, NSC 794443), abemaciclib (NSC 768073), sotorasib (NSC818433), adagrasib (NSC 831453), MRTX-1133 (NSC 836407), Iadademestat (ORY1001, NSC 806812), and RMC-4630 (NSC839698), were obtained from the NCI Developmental Therapeutics Program Chemical Repository. The FDA-approved anticancer drug set is available from the Developmental Therapeutics Program at https://dtp.cancer.gov/organization/dscb/obtaining/available plates.htm. […] The stock solutions were prepared in dimethyl sulfoxide (DMSO, Sigma-Aldrich, St. Louis, MO, cat. D2650) at 800-fold the tested concentration and stored at -70 degrees C prior to their use. All drugs and investigational agents were tested over a range starting from a high concentration at or near the clinical Cmax and decreasing in half-log increments. If the clinical Cmax for an agent had not been determined, the highest concentration tested was 10 microM.
The patient-derived cancer (PDC) cell lines include five colon adenocarcinomas: 186277-243-T-J2-PDC, 616215-338-R-J1-PDC, 439559-082-T-J2-PDC, 463943-066-T-J2-PDC, and 519858-162-T-J1-PDC; three pancreatic carcinomas: 323965-272-R-J2-PDC, 521955-158-R6-J3-PDC, and 521955-158-R2-J5-PDC; two uterine sarcomas: 327498-152-R-J2-PDC and 993429-296-R-J1-PDC; two rhabdomyosarcomas: 755483-174-R-J1-PDC and 772245-204-R-J1-PDC; two soft tissue sarcomas: 126254-015-R-J1-PDC and 494315-158-R-J1-PDC; two malignant fibrous histiocytomas: 317291-083-R-J1-PDC and 596521-263-R-J1-PDC; two breast carcinomas: 171881-019-R-J1-PDC and 885512-296-R-J2-PDC; and one ovarian carcinoma: 6556581-035-R-J-PDC were obtained from the NCI PDMR, (https://pdmr.cancer.gov). The established cell lines HSSY-2 synovial sarcoma (RRID:CVCL 8719), SYO-1 synovial sarcoma (RRID:CVCL_7146), MPNST malignant peripheral neural sheath tumor were obtained from the Sloan Kettering Institute. The following established cell lines were purchased from the American Type Culture Collection (ATCC, Manassas, VA), Sor the received from the NCI repository:, PANC-1 pancreatic carcinoma (CRL-1469, RRID:CVCL_0480), OVCAR-5 ovarian carcinoma (RRID:CVCL_1628), OVCAR-8 ovarian carcinoma (RRID:CVCL_1629), , MCF-7 breast carcinoma (CRL-12584, RRID:CVCL_0031), MDA-MB-231 breast carcinoma (CRL-12532, RRID:CVCL_0062), NCI-H1876 small cell lung carcinoma (CRL-5902, RRID:CVCL_1503), NCI-H510A small cell lung carcinoma (HTB-184, RRID:CVCL_1565), NCI-H1417 (CRL-5869, RRID:CVCL_1469), and NCI-H196 small cell lung carcinoma (CRL-5823, RRID:CVCL_1509). Dr. Peter Houghton (Greehey Children's Cancer Research Institute, University of Texas Health Science Center, San Antonio, TX) provided Rh-18 rhabdomyosarcoma (RRID:CVCL_1659). Pooled donor human umbilical vein endothelial cells (HUVEC, Lonza, cat. CC-2519) and human mesenchymal stem cells (hMSC, Lonza, cat. PT-2501) were purchased from Lonza (Walkersville, MD).
Cell Culture. […]
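Also: spheroids exposed to compounds for seven days.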
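For viability, T/C in this document: 100% = DMSO vehicle control wells.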

NC(=O)C(=Cn1cnc(-c2cc(C(F)(F)F)cc(C(F)(F)F)c2)n1)c1cncnc1 + CCN1C(C(=O)NC23CCC(C(=O)O)(CC2)CC3)C(c2cccc(Cl)c2F)C2(C(=O)Nc3cc(Cl)ccc32)C12CCCCC2
9.02: pIC50 (second compound 3 µM)
7.37: pIC50 (second compound 0.3 µM)
inactive: viability, T/C (second compound 0.03 µM, first compound 0.000949 µM) 108% | viability, T/C (second compound 0.03 µM, first compound 0.003 µM) 95.1% | viability, T/C (second compound 0.03 µM, first compound 0.00949 µM) 111% | viability, T/C (second compound 0.03 µM, first compound 0.03 µM) 72.4% | viability, T/C (second compound 0.0949 µM, first compound 0.000949 µM) 98.6% | viability, T/C (second compound 0.0949 µM, first compound 0.003 µM) 93.7% | viability, T/C (second compound 0.0949 µM, first compound 0.00949 µM) 113% | viability, T/C (second compound 0.0949 µM, first compound 0.03 µM) 72.2% | viability, T/C (second compound 0.3 µM, first compound 0.000949 µM) 74.4% | viability, T/C (second compound 0.3 µM, first compound 0.003 µM) 91% | viability, T/C (second compound 0.3 µM, first compound 0.00949 µM) 92.2% | viability, T/C (second compound 0.3 µM, first compound 0.03 µM) 69.3% | viability, T/C (second compound 0.949 µM, first compound 0.000949 µM) 70.3% | viability, T/C (second compound 0.949 µM, first compound 0.003 µM) 72.2% | viability, T/C (second compound 0.949 µM, first compound 0.00949 µM) 80.9% | viability, T/C (second compound 0.949 µM, first compound 0.03 µM) 63.4% | viability, T/C (second compound 3 µM, first compound 0.000949 µM) 42.7% | viability, T/C (second compound 3 µM, first compound 0.003 µM) 48.9% | viability, T/C (second compound 3 µM, first compound 0.00949 µM) 48.3% | viability, T/C (second compound 3 µM, first compound 0.03 µM) 55%
7.36: pIC50 (second compound 0.0949 µM)
7.40: pIC50 (second compound 0.949 µM)
7.35: pIC50 (second compound 0.03 µM)
active: viability, T/C (second compound 0.03 µM, first compound 0.0949 µM) 9.51% | viability, T/C (second compound 0.03 µM, first compound 0.3 µM) 1.11% | viability, T/C (second compound 0.0949 µM, first compound 0.0949 µM) 6.79% | viability, T/C (second compound 0.0949 µM, first compound 0.3 µM) 0.89% | viability, T/C (second compound 0.3 µM, first compound 0.0949 µM) 6.76% | viability, T/C (second compound 0.3 µM, first compound 0.3 µM) 0.83% | viability, T/C (second compound 0.949 µM, first compound 0.0949 µM) 6.15% | viability, T/C (second compound 0.949 µM, first compound 0.3 µM) 1.27% | viability, T/C (second compound 3 µM, first compound 0.0949 µM) 4.94% | viability, T/C (second compound 3 µM, first compound 0.3 µM) 0.76%
